Square brackets hold non-standard residues; d marks the D form. Peptide text beside a SMILES is read from it. Dab = NCC[C@H](N)C(=O)O; Aib = CC(C)(N)C(=O)O
Molecular target: Glucagon Receptor (Homo sapiens, UniProt P47871)
Assay: Functional assay-cAMP synthesis (luciferase reporter, HEK293), glucagon receptor
Conditions: for % activity*: glucagon receptor
Excerpt: The luminescent light output indicates activation of the luciferase reporter gene, which in turn is a measure of the activation of the receptor.

Sequence of Glucagon Receptor (P47871 26-477): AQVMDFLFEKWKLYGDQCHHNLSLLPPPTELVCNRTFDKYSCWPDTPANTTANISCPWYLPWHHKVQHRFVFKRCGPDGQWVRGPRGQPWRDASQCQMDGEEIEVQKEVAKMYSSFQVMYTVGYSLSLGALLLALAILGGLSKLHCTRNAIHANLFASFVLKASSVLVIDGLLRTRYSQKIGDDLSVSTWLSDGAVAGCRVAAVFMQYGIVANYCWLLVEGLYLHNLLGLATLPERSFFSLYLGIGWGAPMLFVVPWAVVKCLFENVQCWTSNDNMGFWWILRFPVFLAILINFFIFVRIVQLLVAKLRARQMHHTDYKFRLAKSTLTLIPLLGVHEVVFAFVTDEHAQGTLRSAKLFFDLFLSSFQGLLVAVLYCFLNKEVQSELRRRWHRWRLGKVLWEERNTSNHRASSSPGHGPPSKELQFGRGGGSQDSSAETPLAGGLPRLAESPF

SMILES | % activity* (Table 7) [%] | other results
CCCC[C@H](NC(=O)[C@H](CC(C)C)NC(=O)[C@H](Cc1c[nH]c2ccccc12)NC(=O)[C@H](C)NC(=O)[C@@H](NC(=O)[C@H](Cc1ccccc1)NC(=O)[C@H](CCC(=O)O)NC(=O)[C@H](C)NC(=O)[C@H](C)NC(=O)[C@H](CCCNC(=N)N)NC(=O)[C@H](CCCNC(=N)N)NC(=O)[C@@H](NC(=O)[C@H](CC(=O)O)NC(=O)[C@H](CC(C)C)NC(=O)[C@H](Cc1ccc(O)cc1)NC(=O)[C@H](CCCCN)NC(=O)[C@H](CO)NC(=O)[C@H](Cc1ccc(O)cc1)NC(=O)[C@H](CC(=O)O)NC(=O)[C@H](CO)NC(=O)[C@@H](NC(=O)[C@H](Cc1ccccc1)NC(=O)[C@@H](NC(=O)CNC(=O)[C@H](CCNC(C)=O)NC(=O)[C@H](CO)NC(=O)[C@@H](N)Cc1c[nH]cn1)[C@@H](C)O)[C@@H](C)O)[C@@H](C)O)C(C)C)C(=O)N[C@@H](CC(=O)O)C(=O)N[C@@H](CCC(=O)O)C(=O)O [SEQ ID NO: 63] | 19 | 
CNC(=O)CC[C@H](NC(=O)[C@H](CO)NC(=O)[C@@H](N)Cc1c[nH]cn1)C(=O)NCC(=O)N[C@H](C(=O)N[C@@H](Cc1ccccc1)C(=O)N[C@H](C(=O)N[C@@H](CO)C(=O)N[C@@H](CC(=O)O)C(=O)N[C@@H](Cc1ccc(O)cc1)C(=O)N[C@@H](CO)C(=O)N[C@@H](CCCCN)C(=O)N[C@@H](Cc1ccc(O)cc1)C(=O)N[C@@H](CC(C)C)C(=O)N[C@@H](CC(=O)O)C(=O)NC(C)(C)C(=O)N[C@@H](CCCNC(=N)N)C(=O)N[C@@H](CCCNC(=N)N)C(=O)N[C@@H](C)C(=O)N[C@@H](C)C(=O)N[C@@H](CC(=O)O)C(=O)N[C@@H](Cc1ccccc1)C(=O)N[C@H](C(=O)N[C@@H](C)C(=O)N[C@@H](Cc1c[nH]c2ccccc12)C(=O)N[C@@H](CC(C)C)C(=O)N[C@@H](CCSC)C(=O)N[C@@H](CC(=O)O)C(=O)N[C@@H](CCC(=O)O)C(=O)O)C(C)C)[C@@H](C)O)[C@@H](C)O [SEQ ID NO: 70] | 55 | 
CCCC[C@H](NC(=O)[C@H](CC(C)C)NC(=O)[C@H](Cc1c[nH]c2ccccc12)NC(=O)[C@H](C)NC(=O)[C@@H](NC(=O)[C@H](Cc1ccccc1)NC(=O)[C@H](CCC(=O)O)NC(=O)[C@H](C)NC(=O)[C@H](C)NC(=O)[C@H](CCCNC(=N)N)NC(=O)[C@H](CCCNC(=N)N)NC(=O)[C@@H](NC(=O)[C@H](CC(=O)O)NC(=O)[C@H](CC(C)C)NC(=O)[C@H](Cc1ccc(O)cc1)NC(=O)[C@H](CCCCN)NC(=O)[C@H](CO)NC(=O)[C@H](Cc1ccc(O)cc1)NC(=O)[C@H](CC(=O)O)NC(=O)[C@H](CO)NC(=O)[C@@H](NC(=O)[C@H](Cc1ccccc1)NC(=O)[C@@H](NC(=O)CNC(=O)[C@H](CCC(=O)NC)NC(=O)[C@H](CO)NC(=O)[C@@H](N)Cc1c[nH]cn1)[C@@H](C)O)[C@@H](C)O)[C@@H](C)O)C(C)C)C(=O)N[C@@H](CC(=O)O)C(=O)N[C@@H](CCC(=O)O)C(=O)O [SEQ ID NO: 65] | 13 | EC50 (EC50 at Glucagon Receptor (nM), Table 7): 0.48 nM
CCCC[C@H](NC(=O)[C@H](CC(C)C)NC(=O)[C@H](Cc1c[nH]c2ccccc12)NC(=O)[C@H](C)NC(=O)[C@@H](NC(=O)[C@H](Cc1ccccc1)NC(=O)[C@H](CCC(=O)O)NC(=O)[C@H](C)NC(=O)[C@H](C)NC(=O)[C@H](CCCNC(=N)N)NC(=O)[C@H](CCCNC(=N)N)NC(=O)[C@@H](NC(=O)[C@H](CC(=O)O)NC(=O)[C@H](CC(C)C)NC(=O)[C@H](Cc1ccc(O)cc1)NC(=O)[C@H](CCCCN)NC(=O)[C@H](CO)NC(=O)[C@H](Cc1ccc(O)cc1)NC(=O)[C@H](CC(=O)O)NC(=O)[C@H](CO)NC(=O)[C@@H](NC(=O)[C@H](Cc1ccccc1)NC(=O)[C@@H](NC(=O)CNC(=O)[C@H](CCCNC(C)=O)NC(=O)[C@H](CO)NC(=O)[C@@H](N)Cc1c[nH]cn1)[C@@H](C)O)[C@@H](C)O)[C@@H](C)O)C(C)C)C(=O)N[C@@H](CC(=O)O)C(=O)N[C@@H](CCC(=O)O)C(=O)O [SEQ ID NO: 67] | 7 | 
CC(=O)NCC[C@H](NC(=O)[C@H](CO)NC(=O)[C@@H](N)Cc1c[nH]cn1)C(=O)NCC(=O)N[C@H](C(=O)N[C@@H](Cc1ccccc1)C(=O)N[C@H](C(=O)N[C@@H](CO)C(=O)N[C@@H](CC(=O)O)C(=O)N[C@@H](Cc1ccc(O)cc1)C(=O)N[C@@H](CO)C(=O)N[C@@H](CCCCN)C(=O)N[C@@H](Cc1ccc(O)cc1)C(=O)N[C@@H](CC(C)C)C(=O)N[C@@H](CC(=O)O)C(=O)NC(C)(C)C(=O)N[C@@H](CCCNC(=N)N)C(=O)N[C@@H](CCCNC(=N)N)C(=O)N[C@@H](C)C(=O)N[C@H](C(=O)N[C@@H](CC(=O)O)C(=O)N[C@@H](Cc1ccccc1)C(=O)N[C@H](C(=O)N[C@H](C(=O)N[C@@H](Cc1c[nH]c2ccccc12)C(=O)N[C@@H](CC(C)C)C(=O)N[C@@H](CC(C)C)C(=O)N[C@@H](CC(=O)O)C(=O)N[C@@H](CCC(=O)O)C(=O)O)[C@@H](C)O)C(C)C)[C@@H](C)O)[C@@H](C)O)[C@@H](C)O [SEQ ID NO: 74] (H-HS[Dab](Ac)GTFTSDYSKYLD[Aib]RRATDFVTWLLDE-OH; N-terminus and C-terminus assumed) |  | % activity* (Table 8, wildtype glucagon = 100): 46%
CSCC[C@H](NC(=O)[C@H](CC(C)C)NC(=O)[C@H](Cc1c[nH]c2ccccc12)NC(=O)[C@H](CCC(N)=O)NC(=O)[C@@H](NC(=O)[C@H](Cc1ccccc1)NC(=O)[C@H](CC(=O)O)NC(=O)[C@H](CCC(N)=O)NC(=O)[C@H](C)NC(=O)[C@H](CCCNC(=N)N)NC(=O)[C@H](CCCNC(=N)N)NC(=O)[C@H](CO)NC(=O)[C@H](CC(=O)O)NC(=O)[C@H](CC(C)C)NC(=O)[C@H](Cc1ccc(O)cc1)NC(=O)[C@H](CCCCN)NC(=O)[C@H](CO)NC(=O)[C@H](Cc1ccc(O)cc1)NC(=O)[C@H](CC(=O)O)NC(=O)[C@H](CO)NC(=O)[C@@H](NC(=O)[C@H](Cc1ccccc1)NC(=O)[C@@H](NC(=O)CNC(=O)[C@H](CCC(N)=O)NC(=O)[C@H](CO)NC(=O)[C@@H](N)Cc1c[nH]cn1)[C@@H](C)O)[C@@H](C)O)C(C)C)C(=O)N[C@@H](CC(=O)O)C(=O)N[C@@H](CCC(=O)O)C(=O)O [D28, E29] |  | EC50 (EC50 at the glucagon receptor, Example 20): 0.06 nM
CCCC[C@H](NC(=O)[C@H](CC(C)C)NC(=O)[C@H](Cc1c[nH]c2ccccc12)NC(=O)[C@H](C)NC(=O)[C@@H](NC(=O)[C@H](Cc1ccccc1)NC(=O)[C@H](CCC(=O)O)NC(=O)[C@H](C)NC(=O)[C@H](C)NC(=O)[C@H](CCCNC(=N)N)NC(=O)[C@H](CCCNC(=N)N)NC(=O)[C@@H](NC(=O)[C@H](CC(=O)O)NC(=O)[C@H](CC(C)C)NC(=O)[C@H](Cc1ccc(O)cc1)NC(=O)[C@H](CCCCN)NC(=O)[C@H](CO)NC(=O)[C@H](Cc1ccc(O)cc1)NC(=O)[C@H](CC(=O)O)NC(=O)[C@H](CO)NC(=O)[C@@H](NC(=O)[C@H](Cc1ccccc1)NC(=O)[C@@H](NC(=O)CNC(=O)[C@H](CCC(N)=O)NC(=O)[C@H](CO)NC(=O)[C@@H](N)Cc1c[nH]cn1)[C@@H](C)O)[C@@H](C)O)[C@@H](C)O)C(C)C)C(=O)N[C@@H](CC(=O)O)C(=O)N[C@@H](CCC(=O)O)C(=O)O [SEQ ID NO: 61] | 25 | glucagon activity (cAMP induction) (FIG. 11): retains substantial glucagon activity
